{"source": "ChEMBL document CHEMBL3727362", "about": "“Tetrahydronaphthyridine and tetrahydropyrido[4,3-D]pyrimidine compounds and compositions thereof useful for the treatment of inflammatory and respiratory diseases” (2014)"}
{"target": "T1, P2X2/P2X3 heterotrimeric receptor (Homo sapiens) (UniProt Q9UBL9+P56373)", "assay": "Antagonist activity against human P2X2/3 receptor expressed in HEK293/1321N1 cells assessed as inhibition of alpha,beta-meATP/ATP-induced calcium influx at 10 uM by Fluo-4 dye based FLIPR assay", "format": "functional, cell-based", "units": {"inhibition": "%"}}
{"smiles": "Cc1ccc(N2CCc3ncnc(Nc4ccc(C(F)(F)F)cc4)c3C2)cc1", "inhibition": 0}
{"smiles": "FC(F)(F)c1ccc(Nc2ncnc3c2CN(c2ncccc2Cl)CC3)cn1", "inhibition": 0}
{"smiles": "COc1ccccc1CNc1ncnc2c1CN(c1ccc(C)cn1)CC2", "inhibition": "> 75"}
{"smiles": "Cc1ccc(N2CCc3ncnc(NCCc4ccccc4Cl)c3C2)nc1", "inhibition": "> 75"}
{"smiles": "COc1cccc(CNc2ncnc3c2CN(c2ccc(C)cn2)CC3)c1", "inhibition": "> 75"}
{"smiles": "Cc1ccc(N2CCc3ncnc(NCCc4cccc(C(F)(F)F)c4)c3C2)nc1", "inhibition": "> 75"}
{"smiles": "CC1(C)C(=O)Nc2cc(Nc3ncnc4c3CN(c3ncccc3Cl)CC4)ccc21", "inhibition": 0}
{"smiles": "Cc1ccc(N2CCc3ncnc(NCC4(O)CCCC(C)(C)C4)c3C2)nc1", "note": "(centres undefined)", "inhibition": 0}
{"smiles": "COc1ccc(CN(C)c2ncnc3c2CN(c2ccc(C)cn2)CC3)cc1OC", "inhibition": "> 75"}
{"smiles": "CC1(C)CNc2cc(Nc3ncnc4c3CN(c3ncccc3Cl)CC4)ccc21", "inhibition": 0}
{"smiles": "Cc1ccc(N2CCc3ncnc(NCc4cc(C(F)(F)F)ccc4Cl)c3C2)nc1", "inhibition": 0}
{"smiles": "Cc1ccccc1N1CCc2ncnc(Nc3ccc(C(F)(F)F)cc3)c2C1", "inhibition": 0}
{"smiles": "Cc1ccc(N2CCc3ncnc(NCc4ccccc4C)c3C2)nc1", "inhibition": "> 75"}
{"smiles": "Cc1ccc(N2CCc3ncnc(N(C)Cc4ccc(F)cc4)c3C2)nc1", "inhibition": 50}
{"smiles": "Cc1ccc(N2CCc3ncnc(NCC4CCCCC4)c3C2)nc1", "inhibition": "> 75"}
{"target": "T1, P2X2/P2X3 heterotrimeric receptor (Homo sapiens)", "assay": "Antagonist activity against human P2X2/3 receptor expressed in HEK293/1321N1 cells assessed as inhibition of alpha,beta-meATP/ATP-induced calcium influx at 3 uM by Fluo-4 dye based FLIPR assay", "format": "functional, cell-based", "units": {"inhibition": "%"}}
{"smiles": "Cc1ccc(N2CCc3ncnc(NCc4ccc(F)c(C)c4)c3C2)nc1", "inhibition": "> 75"}
{"smiles": "Cc1ccc(N2CCc3ncnc(NCc4cccc(C(F)(F)F)c4)c3C2)nc1", "inhibition": 50}
{"smiles": "Cc1ccc(N2CCc3ncnc(NCc4cc(C(F)(F)F)cc(C(F)(F)F)c4)c3C2)nc1", "inhibition": 0}
{"smiles": "COc1ccc(CCNc2ncnc3c2CN(c2ccc(C)cn2)CC3)cc1", "inhibition": "> 75"}
{"smiles": "Cc1ccc(N2CCc3ncnc(NCc4ccc(C(C)(C)C)cc4)c3C2)nc1", "inhibition": 0}
{"smiles": "Cc1ccc(N2CCc3ncnc(NCc4ccc(F)c(C(F)(F)F)c4)c3C2)nc1", "inhibition": 0}
{"smiles": "O=S(=O)(c1ccc(Nc2ncnc3c2CN(c2ncccc2Cl)CC3)cc1)C(F)(F)F", "inhibition": 0}
{"smiles": "Cc1ccc(N2CCc3ncnc(NCc4cc(F)cc(C(F)(F)F)c4)c3C2)nc1", "inhibition": 0}
{"smiles": "COc1ccc(CN(C)c2ncnc3c2CN(c2ccc(C)cn2)CC3)cc1", "inhibition": 0}
{"smiles": "Cc1ccc(N2CCc3ncnc(NCc4cccc(Cl)c4)c3C2)nc1", "inhibition": "> 75"}
{"smiles": "Cc1ccc(N2CCc3ncnc(NCc4cc(Cl)ccc4F)c3C2)nc1", "inhibition": 50}
{"smiles": "Cc1ccc(N2CCc3ncnc(N(C)Cc4ccc(Cl)cc4)c3C2)nc1", "inhibition": 0}
{"smiles": "Cc1ccc(N2CCc3ncnc(NCCc4ccccc4)c3C2)nc1", "inhibition": "> 75"}
{"smiles": "Cc1ccc(N2CCc3ncnc(NCCc4ccc(Cl)c(Cl)c4)c3C2)nc1", "inhibition": 50}
{"smiles": "CCc1ccc(CN(C)c2ncnc3c2CN(c2ccc(C)cn2)CC3)cc1", "inhibition": 0}
{"smiles": "Cc1ccc(N2CCc3ncnc(NCCc4ccccc4Cl)c3C2)nc1", "inhibition": "> 75"}
{"smiles": "COc1ccc(CNc2ncnc3c2CN(c2ccc(C)cn2)CC3)cc1", "inhibition": "> 75"}
{"smiles": "Cc1ccc(N2CCc3ncnc(NCc4ccccc4Cl)c3C2)nc1", "inhibition": "> 75"}
{"smiles": "Cc1ccc(N2CCc3ncnc(NCc4ccc(Cl)cc4F)c3C2)nc1", "inhibition": 50}
{"smiles": "Clc1cccnc1N1CCc2ncnc(Nc3ccccc3)c2C1", "inhibition": 0}
{"smiles": "COc1cccc(CNc2ncnc3c2CN(c2ccc(C)cn2)CC3)c1", "inhibition": "> 75"}
{"smiles": "Cc1ccc(N2CCc3ncnc(N(C)Cc4ccc(C(F)(F)F)cc4)c3C2)nc1", "inhibition": 0}
{"smiles": "COc1cccc(CN(C)c2ncnc3c2CN(c2ccc(C)cn2)CC3)c1", "inhibition": 0}
{"smiles": "Cc1ccc(N2CCc3ncnc(NCc4cc(Cl)cc(Cl)c4)c3C2)nc1", "inhibition": 0}
{"smiles": "Cc1ccc(N2CCc3ncnc(NCCc4cccc(C(F)(F)F)c4)c3C2)nc1", "inhibition": "> 75"}
{"smiles": "Cc1ccc(N2CCc3ncnc(NCCc4ccc(Cl)cc4)c3C2)nc1", "inhibition": "> 75"}
{"smiles": "COc1ccc(CCNc2ncnc3c2CN(c2ccc(C)cn2)CC3)cc1OC", "inhibition": 50}
{"smiles": "Cc1ccc(N2CCc3ncnc(NCc4ccc(C)cc4C)c3C2)nc1", "inhibition": 25}
{"smiles": "Cc1ccc(N2CCc3ncnc(NCc4ccc(C(F)(F)F)cc4F)c3C2)nc1", "inhibition": "> 75"}
{"smiles": "CN1CC(C)(C)c2ccc(Nc3ncnc4c3CN(c3ncccc3Cl)CC4)cc21", "inhibition": 0}
{"smiles": "Cc1ccc(N2CCc3ncnc(NCc4cccc(C)c4C)c3C2)nc1", "inhibition": 0}
{"smiles": "Cc1ccc(N2CCc3ncnc(NCc4ccc(C(C)C)cc4)c3C2)nc1", "inhibition": 0}
{"smiles": "Cc1ccc(N2CCc3ncnc(NCc4ccc5c(c4)OCO5)c3C2)nc1", "inhibition": "> 75"}
{"smiles": "Cc1ccc(N2CCc3ncnc(NCc4ccc(C(F)(F)F)cc4)c3C2)nc1", "inhibition": "> 75"}
{"smiles": "Cc1ccc(N2CCc3ncnc(NCc4cccc(F)c4)c3C2)nc1", "inhibition": "> 75"}
{"smiles": "Cc1ccc(N2CCc3ncnc(N(C)Cc4ccccc4)c3C2)nc1", "inhibition": 0}
{"smiles": "Cc1ccc(N2CCc3ncnc(NCc4ccc(OC(F)(F)F)cc4)c3C2)nc1", "inhibition": 50}
{"smiles": "COc1ccc(CN(C)c2ncnc3c2CN(c2ccc(C)cn2)CC3)cc1OC", "inhibition": 25}
{"smiles": "Cc1ccc(CNc2ncnc3c2CN(c2ccc(C)cn2)CC3)cc1", "inhibition": "> 75"}
{"smiles": "Cc1ccc(N2CCc3ncnc(NC(C)c4ccc(F)cc4)c3C2)nc1", "note": "(centres undefined)", "inhibition": "> 75"}
{"smiles": "Cc1ccc(N2CCc3ncnc(NCc4cc(C(F)(F)F)ccc4Cl)c3C2)nc1", "inhibition": 0}
{"smiles": "Cc1ccc(N2CCc3ncnc(NCc4cccc(F)c4F)c3C2)nc1", "inhibition": "> 75"}
{"smiles": "COc1cc(CNc2ncnc3c2CN(c2ccc(C)cn2)CC3)cc(OC)c1", "inhibition": 0}
{"smiles": "Cc1ccc(CN(C)c2ncnc3c2CN(c2ccc(C)cn2)CC3)cc1", "inhibition": 25}
{"smiles": "Cc1ccc(N2CCc3ncnc(NCc4ccc(Cl)cc4Cl)c3C2)nc1", "inhibition": 0}
{"smiles": "COc1cc(CCNc2ncnc3c2CN(c2ccc(C)cn2)CC3)cc(OC)c1", "inhibition": 50}
{"smiles": "Cc1ccc(N2CCc3ncnc(NCc4ccc(F)c(F)c4)c3C2)nc1", "inhibition": "> 75"}
{"smiles": "Cc1ccc(CCNc2ncnc3c2CN(c2ccc(C)cn2)CC3)cc1", "inhibition": "> 75"}
{"smiles": "COc1cccc(CCNc2ncnc3c2CN(c2ccc(C)cn2)CC3)c1", "inhibition": "> 75"}
{"smiles": "Cc1ccc(N2CCc3ncnc(N(C)Cc4cccc(Cl)c4)c3C2)nc1", "inhibition": 0}
{"smiles": "Cc1ccc(N2CCc3ncnc(N(C)Cc4ccc(F)cc4)c3C2)nc1", "inhibition": 0}
{"smiles": "Cc1ccc(N2CCc3ncnc(NCc4ccc(Cl)cc4)c3C2)nc1", "inhibition": "> 75"}
{"smiles": "Cc1ccc(N2CCc3ncnc(NCc4cc(C(F)(F)F)ccc4F)c3C2)nc1", "inhibition": 0}
{"smiles": "Cc1ccc(N2CCc3ncnc(NCc4ccccc4OC(F)F)c3C2)nc1", "inhibition": "> 75"}
{"smiles": "Cc1ccc(N2CCc3ncnc(NCc4ccccc4OC(F)(F)F)c3C2)nc1", "inhibition": "> 75"}
{"smiles": "COc1ccccc1CN(C)c1ncnc2c1CN(c1ccc(C)cn1)CC2", "inhibition": 0}
{"smiles": "Cc1ccc(N2CCc3ncnc(NCc4ccccc4C(F)(F)F)c3C2)nc1", "inhibition": 50}
{"smiles": "Cc1ccc(N2CCc3ncnc(NCc4cc(F)ccc4F)c3C2)nc1", "inhibition": 50}
{"smiles": "Cc1ccc(N2CCc3ncnc(NCc4ccc(Cl)c(Cl)c4)c3C2)nc1", "inhibition": 0}
